# Data taken from patent publication US20240109896A1, “FGFR KINASE INHIBITOR AND USE THEREOF” (YA THERAPEUTICS INC, priority 2021, published 2024).
# Where two headings read alike, the source gives them in different places.
# Key:
# FGFR2 = FGFR2 (Homo sapiens, UniProt P21802); assay: In vitro activity inhibition test for kinase FGFR2; type: biochemical; details: kinase assay, 25° C.; read-out: Inhibition of separase IC50 (nM) FGFR2
# FGFR1 = FGFR1 (Homo sapiens, UniProt P11362); assay: In vitro activity inhibition test for kinase FGFR1
# Chain of FGFR1 (P11362 22-822): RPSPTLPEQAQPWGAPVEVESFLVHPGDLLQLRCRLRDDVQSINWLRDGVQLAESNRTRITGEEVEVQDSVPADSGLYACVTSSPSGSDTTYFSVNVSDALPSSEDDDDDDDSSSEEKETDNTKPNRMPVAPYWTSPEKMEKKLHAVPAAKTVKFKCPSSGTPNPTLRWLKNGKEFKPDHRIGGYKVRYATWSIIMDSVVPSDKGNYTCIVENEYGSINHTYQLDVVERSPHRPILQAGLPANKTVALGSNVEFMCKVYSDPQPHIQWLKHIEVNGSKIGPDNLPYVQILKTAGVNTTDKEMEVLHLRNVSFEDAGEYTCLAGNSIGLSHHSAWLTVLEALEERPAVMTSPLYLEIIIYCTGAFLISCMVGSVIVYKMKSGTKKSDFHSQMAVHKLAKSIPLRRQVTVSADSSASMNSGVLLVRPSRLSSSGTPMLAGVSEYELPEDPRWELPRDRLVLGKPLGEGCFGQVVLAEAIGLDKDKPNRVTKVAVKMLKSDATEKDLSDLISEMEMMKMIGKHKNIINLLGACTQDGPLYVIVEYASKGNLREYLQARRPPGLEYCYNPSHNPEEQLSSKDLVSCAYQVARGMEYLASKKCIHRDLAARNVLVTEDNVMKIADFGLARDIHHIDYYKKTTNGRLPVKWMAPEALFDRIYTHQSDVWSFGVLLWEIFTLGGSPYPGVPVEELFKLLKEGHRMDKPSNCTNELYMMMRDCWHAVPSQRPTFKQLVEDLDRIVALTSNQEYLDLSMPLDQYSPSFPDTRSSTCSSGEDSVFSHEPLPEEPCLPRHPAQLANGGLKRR
# Method: (§1) In Vitro Activity Inhibition Test for Kinases FGFR1, FGFR2, FGFR3 and FGFR4
# (§2) The activity of FGFR1, FGFR2, FGFR3 and FGFR4 protein kinases was determined by Caliper mobility shift assay. Perform a 4-fold gradient dilution from a working concentration of 0.2 mM in DMSO, diluting 10 concentrations. Add 2 μL of compound to 78 μL of 1× compound buffer. There were 10 points each for the negative control and the positive control. Shake the board on the rocker for 20 min. […] The final concentration of DMSO was 0.5%.
# FGFR3 = FGFR3 (Homo sapiens, UniProt P22607); assay: In vitro activity inhibition test for kinase FGFR3;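 also: FGFR3 kinase activity read by Caliper mobility shift assay, compounds run as 10-point 4-fold dilution series, final DMSO 0.5%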
# Chain of FGFR3 (P22607 23-806): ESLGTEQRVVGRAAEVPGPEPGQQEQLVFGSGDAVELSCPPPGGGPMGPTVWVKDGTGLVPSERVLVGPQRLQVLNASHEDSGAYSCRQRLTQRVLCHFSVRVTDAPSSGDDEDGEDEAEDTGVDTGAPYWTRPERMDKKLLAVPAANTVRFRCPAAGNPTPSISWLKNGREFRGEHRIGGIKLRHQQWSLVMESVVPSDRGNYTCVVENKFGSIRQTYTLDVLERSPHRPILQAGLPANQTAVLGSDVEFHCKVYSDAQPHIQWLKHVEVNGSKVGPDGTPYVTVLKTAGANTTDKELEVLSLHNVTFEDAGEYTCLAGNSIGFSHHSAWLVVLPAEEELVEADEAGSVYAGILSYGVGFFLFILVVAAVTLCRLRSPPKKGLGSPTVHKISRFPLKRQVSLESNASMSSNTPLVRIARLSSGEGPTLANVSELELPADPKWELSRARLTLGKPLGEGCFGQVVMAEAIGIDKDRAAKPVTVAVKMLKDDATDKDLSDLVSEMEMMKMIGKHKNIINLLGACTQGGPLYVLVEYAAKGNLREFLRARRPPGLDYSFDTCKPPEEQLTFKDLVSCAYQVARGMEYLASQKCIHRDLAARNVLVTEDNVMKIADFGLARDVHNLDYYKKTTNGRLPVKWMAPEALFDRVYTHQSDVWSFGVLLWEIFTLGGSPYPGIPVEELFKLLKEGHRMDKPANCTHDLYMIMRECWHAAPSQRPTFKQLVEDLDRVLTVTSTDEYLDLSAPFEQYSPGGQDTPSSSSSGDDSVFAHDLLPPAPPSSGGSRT
# Method: as §1, §2
# FGFR4 = FGFR4 (Homo sapiens, UniProt P22455); assay: In vitro activity inhibition test for kinase FGFR4;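 also: caliper mobility shift assay of FGFR4 kinase activity, compounds tested as 10-point 4-fold dilution series with 0.5% DMSO final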
# Chain of FGFR4 (P22455 22-802): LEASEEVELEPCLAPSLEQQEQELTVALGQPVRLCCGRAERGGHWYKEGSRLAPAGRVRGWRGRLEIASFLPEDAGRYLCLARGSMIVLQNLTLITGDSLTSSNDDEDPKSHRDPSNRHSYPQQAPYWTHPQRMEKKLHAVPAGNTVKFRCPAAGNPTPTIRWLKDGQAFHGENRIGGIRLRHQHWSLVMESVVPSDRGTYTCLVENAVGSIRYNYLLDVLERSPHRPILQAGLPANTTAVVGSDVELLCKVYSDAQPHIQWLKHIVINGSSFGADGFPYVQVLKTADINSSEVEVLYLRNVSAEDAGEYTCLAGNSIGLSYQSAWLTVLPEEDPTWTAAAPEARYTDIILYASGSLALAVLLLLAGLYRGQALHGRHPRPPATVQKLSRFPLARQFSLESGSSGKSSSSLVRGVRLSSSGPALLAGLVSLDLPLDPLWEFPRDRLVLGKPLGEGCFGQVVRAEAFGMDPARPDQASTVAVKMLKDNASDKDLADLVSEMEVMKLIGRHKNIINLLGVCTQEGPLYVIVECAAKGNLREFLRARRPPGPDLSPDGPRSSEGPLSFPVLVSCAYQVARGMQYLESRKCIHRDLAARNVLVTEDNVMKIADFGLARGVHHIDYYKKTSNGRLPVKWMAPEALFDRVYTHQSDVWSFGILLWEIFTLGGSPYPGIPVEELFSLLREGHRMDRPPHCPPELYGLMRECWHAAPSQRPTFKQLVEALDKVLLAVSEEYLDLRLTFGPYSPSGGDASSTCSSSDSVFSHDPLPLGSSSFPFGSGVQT
# Method: as §1, §2
# [1] = read-out: Inhibition of FGFR1 IC50 (nM) FGFR1, kinase assay, 25° C.
# [2] = read-out: Inhibition IC50 (nM) FGFR3, kinase assay, 25° C.
# [3] = read-out: Inhibition of kinase IC50 (nM) FGFR4, kinase assay, 25° C.
# Chain of FGFR2 (P21802 22-821): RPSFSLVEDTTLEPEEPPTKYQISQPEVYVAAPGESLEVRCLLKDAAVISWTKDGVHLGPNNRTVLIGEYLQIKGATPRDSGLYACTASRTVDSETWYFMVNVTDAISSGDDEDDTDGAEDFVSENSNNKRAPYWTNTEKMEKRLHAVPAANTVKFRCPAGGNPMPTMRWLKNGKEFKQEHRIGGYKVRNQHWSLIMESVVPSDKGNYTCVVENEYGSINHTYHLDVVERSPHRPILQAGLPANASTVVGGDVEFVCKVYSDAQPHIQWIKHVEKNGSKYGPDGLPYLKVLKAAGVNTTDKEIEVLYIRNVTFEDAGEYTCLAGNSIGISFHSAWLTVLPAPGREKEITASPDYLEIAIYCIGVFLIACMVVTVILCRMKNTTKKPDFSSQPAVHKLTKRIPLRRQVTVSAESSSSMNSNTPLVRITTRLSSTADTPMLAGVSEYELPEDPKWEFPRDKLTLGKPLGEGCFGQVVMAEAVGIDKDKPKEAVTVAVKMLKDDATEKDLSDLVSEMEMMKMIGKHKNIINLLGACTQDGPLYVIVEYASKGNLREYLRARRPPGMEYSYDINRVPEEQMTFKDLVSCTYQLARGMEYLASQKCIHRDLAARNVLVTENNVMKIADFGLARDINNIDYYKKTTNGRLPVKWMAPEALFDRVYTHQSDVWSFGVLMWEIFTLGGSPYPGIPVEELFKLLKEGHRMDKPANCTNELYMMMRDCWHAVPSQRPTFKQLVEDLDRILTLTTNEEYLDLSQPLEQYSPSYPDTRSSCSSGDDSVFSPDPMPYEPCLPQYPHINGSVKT
Molecule,IC50 (FGFR2),IC50 (FGFR1),IC50 (FGFR3),IC50 (FGFR4),IC50 (FGFR1; [1]),IC50 (FGFR3; [2]),IC50 (FGFR4; [3])
"CC#CC(=O)N1CC[C@H](Nc2nc(N)c(C(N)=O)c(C#Cc3cc(OC)cc(OC)c3)n2)C1 [Compound 12, (S)-4-amino-2-((1-(but-2-ynoyl)pyrrolidin-3-yl)amino)-6-((3,5-dimethoxyphenyl)ethynyl)pyrimidine-5-carboxamide]",< 10 nM,< 10 nM,< 10 nM,< 10 nM,–,–,–
"CC#CC(=O)N1CCC[C@H](n2nc(C#Cc3cc(OC)cc(OC)c3)c3c(N)n[nH]c(=O)c32)C1 [Compound 25, (S)-4-amino-1-(1-(but-2-ynoyl)piperidin-3-yl)-3-((3,5-dimethoxyphenyl)ethynyl)-1,6-dihydro-7H-pyrazolo[3,4-d]pyridazin-7-one]",< 10 nM,< 10 nM,< 10 nM,< 10 nM,–,–,–
"CC#CC(=O)N1CC[C@H](n2cc(-c3ccc4ccccc4c3)c3c(N)n[nH]c(=O)c32)C1 [Compound 39, (S)-4-amino-1-(1-(but-2-ynoyl)pyrrolidin-3-yl)-3-(naphthalen-2-yl)-1,6-dihydro-7H-pyrrolo[2,3-d]pyridazin-7-one]",< 10 nM,< 10 nM,< 10 nM,< 10 nM,–,–,–
"CC#CC(=O)N1CC[C@H](Nc2ncc(C(F)(F)F)c(C#Cc3cc(OC)cc(OC)c3)n2)C1 [Compound 14, (S)-1-(3-((4-((3,5-dimethoxyphenyl)ethynyl)-5-(trifluoromethyl)pyrimidin-2-yl)amino)pyrrolidin-1-yl)but-2-yn-1-one]",10 to 100 nM,10 to 100 nM,100 to 500 nM,10 to 100 nM,–,–,–
"C=CC(=O)N1CC[C@H](n2cc(-c3cc4ccccc4o3)c3c(N)n[nH]c(=O)c32)C1 [Compound 41, (S)-1-(1-acryloylpyrrolidin-3-yl)-4-amino-3-(benzofuran-2-yl)-1,6-dihydro-7H-pyrrolo[2,3-d]pyridazin-7-one]",< 10 nM,< 10 nM,< 10 nM,< 10 nM,–,–,–
"CC#CC(=O)N1CC[C@H](n2nc(C#Cc3cc(OC)cc(OC)c3)c3c(N)n[nH]c(=O)c32)C1 [Compound 27, (S)-4-amino-1-(1-(but-2-ynoyl)pyrrolidin-3-yl)-3-((3,5-dimethoxyphenyl)ethynyl)-1,6-dihydro-7H-pyrazolo[3,4-d]pyridazin-7-one]",< 10 nM,< 10 nM,< 10 nM,< 10 nM,–,–,–
"C=CC(=O)N1CC[C@H](n2cc(-c3cc4ccccc4n3C)c3c(N)n[nH]c(=O)c32)C1 [Compound 40, (S)-1-(1-acryloylpyrrolidin-3-yl)-4-amino-3-(1-methyl-1H-indol-2-yl)-1,6-dihydro-7H-pyrrolo[2,3-d]pyridazin-7-one]",< 10 nM,< 10 nM,< 10 nM,< 10 nM,–,–,–
"C=CC(=O)N[C@H]1CCN(c2nc(N)c(C(N)=O)c(C#Cc3cc(OC)cc(OC)c3)n2)C1 [Compound 17, (S)-2-(3-acrylamidopyrrolidin-1-yl)-4-amino-6-((3,5-dimethoxyphenyl)ethynyl)pyrimidine-5-carboxamide]",< 10 nM,< 10 nM,< 10 nM,< 10 nM,–,–,–
"C=CC(=O)N1CC[C@H](Nc2ncc(C#N)c(C#Cc3cc(OC)cc(OC)c3)n2)C1 [Compound 5, (S)-2-((1-acryloylpyrrolidin-3-yl)amino)-4-((3,5-dimethoxyphenyl)ethynyl)pyrimidine-5-carbonitrile]",10 to 100 nM,10 to 100 nM,100 to 500 nM,10 to 100 nM,–,–,–
"C=CC(=O)N1CC[C@H](Nc2ncc(F)c(C#Cc3cc(OC)cc(OC)c3)n2)C1 [Compound 3, (S)-1-(3-((4-((3,5-dimethoxyphenyl)ethynyl)-5-fluoropyrimidin-2-yl)amino)pyrrolidin-1-yl)prop-2-en-1-one]",10 to 100 nM,10 to 100 nM,10 to 100 nM,10 to 100 nM,–,–,–
"CC#CC(=O)N1CCC[C@H](n2cc(C#Cc3cc(OC)cc(OC)c3)c3c(N)n[nH]c(=O)c32)C1 [Compound 21, (S)-4-amino-1-(1-(but-2-ynoyl)piperidin-3-yl)-3-((3,5-dimethoxyphenyl)ethynyl)-1,6-dihydro-7H-pyrrolo[2,3-d]pyridazin-7-one]",< 10 nM,< 10 nM,< 10 nM,< 10 nM,–,–,–
"(S)-4-amino-1-(1-(but-2-ynoyl)pyrrolidin-3-yl)-3-((2,6-difluoro-3,5-dimethoxyphenyl)ethynyl)-1,6-dihydro-7H-pyrazolo[3,4-d]pyridazin-7-one [Compound 29]",< 10 nM,–,–,–,< 10 nM,< 10 nM,< 10 nM
"C=CC(=O)N1CC[C@H](n2cc(-c3ccc4ccccc4c3)c3c(N)n[nH]c(=O)c32)C1 [Compound 43, (S)-1-(1-acryloylpyrrolidin-3-yl)-4-amino-3-(naphthalen-2-yl)-1,6-dihydro-7H-pyrrolo[2,3-d]pyridazin-7-one]",< 10 nM,< 10 nM,< 10 nM,< 10 nM,–,–,–

# More lines, main results first:
IC50 (FGFR2),IC50 (FGFR1),IC50 (FGFR3),IC50 (FGFR4),Molecule,IC50 (FGFR1; [1]),IC50 (FGFR3; [2]),IC50 (FGFR4; [3])
10 to 100 nM,100 to 500 nM,10 to 100 nM,100 to 500 nM,"C=CC(=O)N1CCC2(CC1)CC(Nc1nc(N)c(C(N)=O)c(C#Cc3cc(OC)cc(OC)c3)n1)C2 [Compound 9, 2-((7-acryloyl-7-azaspiro[3.5]nonan-2-yl)amino)-4-amino-6-((3,5-dimethoxyphenyl)ethynyl)pyrimidine-5-carboxamide]",–,–,–
10 to 100 nM,10 to 100 nM,10 to 100 nM,10 to 100 nM,"C=CC(=O)N1CC2(CC(Nc3nc(N)c(C(N)=O)c(C#Cc4cc(OC)cc(OC)c4)n3)C2)C1 [Compound 7, 2-((2-acryloyl-2-azaspiro[3.3]heptan-6-yl)amino)-4-amino-6-((3,5-dimethoxyphenyl)ethynyl)pyrimidine-5-carboxamide]",–,–,–
10 to 100 nM,10 to 100 nM,100 to 500 nM,10 to 100 nM,"C=CC(=O)N1CC[C@H](Nc2nccc(C#Cc3cc(OC)cc(OC)c3)n2)C1 [Compound 1, (S)-1-(3-((4-((3,5-dimethoxyphenyl)ethynyl)pyrimidin-2-yl)amino)pyrrolidin-1-yl)prop-2-en-1-one]",–,–,–
< 10 nM,10 to 100 nM,< 10 nM,< 10 nM,"C=CC(=O)N1CCC(c2nc(N)c(C(N)=O)c(C#Cc3cc(OC)cc(OC)c3)n2)C1 (centres unmarked) [Compound 18, 2-(1-acryloylpyrrolidin-3-yl)-4-amino-6-((3,5-dimethoxyphenyl)ethynyl)pyrimidine-5-carboxamide]",–,–,–
< 10 nM,< 10 nM,< 10 nM,< 10 nM,"C=CC(=O)N1CC[C@H](Nc2nc(N)c(C(N)=O)c(C#Cc3cc(OC)cc(OC)c3)n2)C1 [Compound 6, (S)-2-((1-acryloylpyrrolidin-3-yl)amino)-4-amino-6-((3,5-dimethoxyphenyl)ethynyl)pyrimidine-5-carboxamide]",–,–,–
100 to 500 nM,10 to 100 nM,10 to 100 nM,10 to 100 nM,"C=CC(=O)N1CC[C@H](Nc2ncc(C(F)(F)F)c(C#Cc3cc(OC)cc(OC)c3)n2)C1 [Compound 4, (S)-1-(3-((4-((3,5-dimethoxyphenyl)ethynyl)-5-(trifluoromethyl)pyrimidin-2-yl)amino)pyrrolidin-1-yl)prop-2-en-1-one]",–,–,–
10 to 100 nM,100 to 500 nM,10 to 100 nM,100 to 500 nM,"C=CC(=O)N1CCC2(CC(Nc3nc(N)c(C(N)=O)c(C#Cc4cc(OC)cc(OC)c4)n3)C2)C1 (centres unmarked) [Compound 8, 2-((6-acryloyl-6-azaspiro[3.4]octan-2-yl)amino)-4-amino-6-((3,5-dimethoxyphenyl)ethynyl)pyrimidine-5-carboxamide]",–,–,–
10 to 100 nM,10 to 100 nM,100 to 500 nM,100 to 500 nM,"C=CC(=O)N1CC[C@H](Nc2ncc(Br)c(C#Cc3cc(OC)cc(OC)c3)n2)C1 [Compound 2, (S)-1-(3-((5-bromo-4-((3,5-dimethoxyphenyl)ethynyl)pyrimidin-2-yl)amino)pyrrolidin-1-yl)prop-2-en-1-one]",–,–,–
10 to 100 nM,10 to 100 nM,100 to 500 nM,10 to 100 nM,"C=CC(=O)N1CCC[C@H](Nc2nc(N)c(C(N)=O)c(C#Cc3cc(OC)cc(OC)c3)n2)C1 [Compound 11, (S)-2-((1-acryloylpiperidin-3-yl)amino)-4-amino-6-((3,5-dimethoxyphenyl)ethynyl)pyrimidine-5-carboxamide]",–,–,–
10 to 100 nM,10 to 100 nM,100 to 500 nM,10 to 100 nM,"C=CC(=O)N1CCC(Nc2nc(N)c(C(N)=O)c(C#Cc3cc(OC)cc(OC)c3)n2)CC1 [Compound 10, 2-((1-acryloylpiperidin-4-yl)amino)-4-amino-6-((3,5-dimethoxyphenyl)ethynyl)pyrimidine-5-carboxamide]",–,–,–
< 10 nM,< 10 nM,< 10 nM,< 10 nM,"C=CC(=O)N1CC[C@@H](Nc2nc(N)c(C(N)=O)c(C#Cc3cc(OC)cc(OC)c3)n2)C1 [Compound 15, (R)-2-((1-acryloylpyrrolidin-3-yl)amino)-4-amino-6-((3,5-dimethoxyphenyl)ethynyl)pyrimidine-5-carboxamide]",–,–,–
< 10 nM,< 10 nM,10 to 100 nM,10 to 100 nM,"C=CC(=O)N1CC[C@H](Nc2ncc(C(N)=O)c(C#Cc3cc(OC)cc(OC)c3)n2)C1 [Compound 16, (S)-2-((1-acryloylpyrrolidin-3-yl)amino)-4-((3,5-dimethoxyphenyl)ethynyl)pyrimidine-5-carboxamide]",–,–,–
< 10 nM,–,–,–,"2-(1-acryloylpyrrolidin-3-yl)-4-((3,5-dimethoxyphenyl)ethynyl)pyrimidine-5-carboxamide [Compound 19]",< 10 nM,< 10 nM,< 10 nM
